Reference: ChEMBL document CHEMBL1201862, “PubChem BioAssay data set” (2004)
Activity calls are given as the source filed them.

Experiments:
[1] = target: Glyceraldehyde-3-phosphate dehydrogenase (Homo sapiens, UniProt P04406)
Bcl-2-related protein A1 [2] = target: T1, Bcl-2-related protein A1 (Mus musculus, UniProt Q07440); assay: Bfl-1 inhibitors blocking BH3 peptide binding, confirmation, biochemical, TR-FRET, mouse Bfl-1 (AID 621);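 note: TR-FRET binding of GST-Bfl-1 to FITC-labelled Bid peptide via terbium antibody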
T1 sequence (Q07440 whole entry): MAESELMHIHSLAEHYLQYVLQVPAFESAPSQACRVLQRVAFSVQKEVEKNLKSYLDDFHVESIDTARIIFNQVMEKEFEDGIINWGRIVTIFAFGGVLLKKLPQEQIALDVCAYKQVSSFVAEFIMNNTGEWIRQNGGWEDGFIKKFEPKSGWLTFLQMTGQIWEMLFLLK

Bcl-2-related protein A1 [3] = target: T1, Bcl-2-related protein A1; assay: Bfl-1 binding inhibitors, SAR follow-up, biochemical, fluorescence polarization (AID 1070)
[4] = tested on: Streptococcus sp. 'group A'; assay: growth inhibition of control SK(-) GAS strain, dose response, counter-screen for streptokinase expression inhibitor project, luminescence, kanamycin, BacTiterGlo, confirmation (AID 1900); type: functional, organism-based
Streptokinase A = target: T2, Streptokinase A (Streptococcus pyogenes serotype M1, UniProt P10520); assay: S. pyogenes streptokinase expression inhibitors, potency, dose response, plasminogen activation absorbance, OD405 (AID 1914); type: functional, Streptococcus pyogenes M1 GAS;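 note: secreted streptokinase activity via plasminogen activation per viability signal from cell pellet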
T2 sequence (P10520 whole entry): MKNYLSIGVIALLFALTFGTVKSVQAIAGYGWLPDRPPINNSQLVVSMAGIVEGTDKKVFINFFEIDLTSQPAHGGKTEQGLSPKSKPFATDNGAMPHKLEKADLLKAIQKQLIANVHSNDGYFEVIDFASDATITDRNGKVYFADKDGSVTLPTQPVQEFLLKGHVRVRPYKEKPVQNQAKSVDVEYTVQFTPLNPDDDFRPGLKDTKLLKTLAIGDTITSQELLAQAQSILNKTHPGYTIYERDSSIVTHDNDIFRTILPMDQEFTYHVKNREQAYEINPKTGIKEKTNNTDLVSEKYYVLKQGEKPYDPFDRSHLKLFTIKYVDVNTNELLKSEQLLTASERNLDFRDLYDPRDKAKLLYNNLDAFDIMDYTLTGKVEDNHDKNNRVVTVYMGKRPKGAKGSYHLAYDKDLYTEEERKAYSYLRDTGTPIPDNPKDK

[5] = target: Aryl hydrocarbon receptor (Homo sapiens, UniProt P35869); assay: Luminescence-based cell-based high throughput dose response assay for activators of the Aryl Hydrocarbon Receptor (AHR). [Related pubchem assays: 2796 (Primary screen (AHR activators in singlicate)), 2845 (Confirmation screen (AHR activators in triplicate)), 434939 (Counterscreen (PXR activators in triplicate)), 2804 (Summary (AHR activators))]; type: ADME
Streptococcus = assay: Group A Streptococcus viability loss, dose response, counter-screen for streptokinase expression inhibitor project, luminescence, BacTiterGlo (AID 1915); type: functional, organism-based;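 note: potency for reduction of bacterial viability or growth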
[6] = target: T3, RNA-binding protein pos-1 (Caenorhabditis elegans, UniProt G5EF15); assay: inhibitors of POS-1/mex-3 RNA binding, dose response, biochemical, fluorescence polarization (AID 1964);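 note: purified POS-1 fused to maltose binding protein made in E. coli; potency of compounds blocking POS-1 binding to fluorescent RNA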
T3 sequence (G5EF15 whole entry): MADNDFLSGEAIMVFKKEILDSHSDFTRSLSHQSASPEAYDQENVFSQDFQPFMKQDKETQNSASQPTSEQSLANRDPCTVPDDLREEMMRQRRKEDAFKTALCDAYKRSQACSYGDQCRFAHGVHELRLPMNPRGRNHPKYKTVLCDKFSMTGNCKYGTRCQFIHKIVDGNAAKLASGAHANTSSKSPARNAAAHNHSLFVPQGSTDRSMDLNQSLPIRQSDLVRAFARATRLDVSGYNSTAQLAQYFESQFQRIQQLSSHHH

Bcl-2-related protein A1 [7] = target: T1, Bcl-2-related protein A1; assay: Bfl-1 inhibitors, primary screen, biochemical, fluorescence polarization, FITC-Bid, mouse (AID 432)
[8] = target: T4, Zinc finger protein mex-5 (Caenorhabditis elegans, UniProt Q9XUB2); assay: MEX-5/TCR-2 RNA interaction inhibitors, dose response, biochemical, C. elegans, fluorescence polarization (AID 1960)
T4 sequence (Q9XUB2 whole entry): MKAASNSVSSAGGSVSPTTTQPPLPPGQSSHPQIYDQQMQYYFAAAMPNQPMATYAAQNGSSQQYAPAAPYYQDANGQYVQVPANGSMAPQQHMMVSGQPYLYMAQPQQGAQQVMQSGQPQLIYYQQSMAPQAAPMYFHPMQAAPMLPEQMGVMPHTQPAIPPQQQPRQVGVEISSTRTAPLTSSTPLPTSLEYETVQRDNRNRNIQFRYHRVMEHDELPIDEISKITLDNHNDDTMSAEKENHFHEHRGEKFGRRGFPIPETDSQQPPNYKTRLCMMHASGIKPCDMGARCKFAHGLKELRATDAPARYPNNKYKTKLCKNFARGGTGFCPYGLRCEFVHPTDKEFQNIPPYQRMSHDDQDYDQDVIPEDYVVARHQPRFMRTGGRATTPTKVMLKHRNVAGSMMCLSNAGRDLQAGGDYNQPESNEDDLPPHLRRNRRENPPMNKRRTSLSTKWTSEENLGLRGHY

[9] = Vero cell cytotoxicity, dose response, cytotoxicity control for Vif-APOBEC3G degradation inhibitor project, Vero cells (AID 1117358); type: functional; settings: Human immunodeficiency virus 1, Vero
[10] = target: Luciferin 4-monooxygenase (Photinus pyralis, UniProt P08659); assay: firefly luciferase enzyme inhibitors, dose response, biochemical, luminescence (AID 1891)
[11] = Luminescence Cell-Based Dose Confirmation HTS to Identify Inhibitors of Platelet Dense Granule Release. [Related pubchem assays: 1663 (Primary HTS), 1678 (Summary of Project)]; type: functional
Ephrin type-A receptor 4 = Ephrin type-A receptor 4 (Mus musculus, UniProt Q03137); assay: inhibitors of EphA4 binding to KYL peptide, primary screen, biochemical, colorimetric, mouse EphA4 (AID 689); type: functional
[12] = target: Transitional endoplasmic reticulum ATPase (Homo sapiens, UniProt P55072, C522A); assay: Luminescence counterscreen assay for p97 inhibitors: dose response biochemical high throughput screening assay to identify inhibitors of the C522A mutant p97 ATPase: synthesized compounds. [Related pubchem assays: 1481, 1517, 1551 ]
[13] = target: Transitional endoplasmic reticulum ATPase (Homo sapiens, UniProt P55072); assay: Luminescence dose response biochemical high throughput screening assay for inhibitors of the p97 ATPase: synthesized compounds. [Related pubchem assays: 1481, 1517 ]
[14] = target: Photoreceptor-specific nuclear receptor (Homo sapiens, UniProt Q9Y5X4); type: functional, cell-based;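 note: CHO-S cells with Gal4-NCOR and VP16-NR2E3 two-hybrid luciferase reporter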
[15] = target: SWI/SNF-related matrix-associated actin-dependent regulator of chromatin subfamily A member 2 (Homo sapiens, UniProt P51531); assay: Luminescence-based cell-based high throughput dose response assay to identify activators of the function of SWI/SNF related, matrix associated, actin dependent regulator of chromatin, subfamily a, member 2 (SMARCA2, BRM).; type: functional
[16] = Counterscreen for activators of the function of SWI/SNF related, matrix associated, actin dependent regulator of chromatin, subfamily a, member 2 (SMARCA2, BRM): Luminescence-based cell-based high throughput dose response assay to identify non-selective compounds using the VP16 reporter assay.; type: functional
[17] = Luminescence-based cell-based high throughput dose response assay to identify activators of the DAF-12 from the parasite S. stercoralis (ssDAF-12).; type: functional
Transthyretin = Transthyretin (Homo sapiens, UniProt P02766); assay: Luminescence-based cell-based high throughput dose response assay to identify activators of Transthyretin (TTR) transcription.; type: functional
Cytochrome P450 2C9 = Cytochrome P450 2C9 (Homo sapiens, UniProt P11712)
Vero = assay: cytotoxicity of synthesized analogs in Vero cells, SAR follow-up, cytotoxicity control for West Nile virus antiviral project, cell-based, set II (AID 2402); type: functional; settings: Chlorocebus sabaeus
[18] = target: Voltage-gated inwardly rectifying potassium channel KCNH2 (Homo sapiens, UniProt Q12809); assay: hERG protection from proarrhythmic block, potency, dose response, cell-based, thallium flux (AID 2121); type: ADME
NADPH oxidase 1 = NADPH oxidase 1 (Homo sapiens, UniProt Q9Y5S8); assay: Late-stage luminescence-based cell-based dose response assay to identify inhibitors of NADPH oxidase 1 (NOX1): Synthesized analogs 3.; type: functional
[19] = target: Signal transducer and activator of transcription 1-alpha/beta (Homo sapiens, UniProt P42224); assay: STAT1 signalling inhibitors, dose response, cell-based, NIH 3T3, luciferase reporter (AID 1396); type: functional
[20] = target: RNA-editing ligase 1, mitochondrial (Trypanosoma brucei brucei, UniProt P86926); assay: TbREL1 ligase inhibitors, dose response, biochemical, fluorescence, Trypanosoma brucei (AID 1117295); type: functional
Phospholipase D2 = Phospholipase D2 (Homo sapiens, UniProt O14939); assay: PLD2 Cellular Concentration Response Study.; type: functional
Phospholipase D1 = target: T5, Phospholipase D1 (Homo sapiens, UniProt Q13393); assay: PLD1 Cellular Concentration Response Study.; type: functional
T5 sequence (Q13393 whole entry): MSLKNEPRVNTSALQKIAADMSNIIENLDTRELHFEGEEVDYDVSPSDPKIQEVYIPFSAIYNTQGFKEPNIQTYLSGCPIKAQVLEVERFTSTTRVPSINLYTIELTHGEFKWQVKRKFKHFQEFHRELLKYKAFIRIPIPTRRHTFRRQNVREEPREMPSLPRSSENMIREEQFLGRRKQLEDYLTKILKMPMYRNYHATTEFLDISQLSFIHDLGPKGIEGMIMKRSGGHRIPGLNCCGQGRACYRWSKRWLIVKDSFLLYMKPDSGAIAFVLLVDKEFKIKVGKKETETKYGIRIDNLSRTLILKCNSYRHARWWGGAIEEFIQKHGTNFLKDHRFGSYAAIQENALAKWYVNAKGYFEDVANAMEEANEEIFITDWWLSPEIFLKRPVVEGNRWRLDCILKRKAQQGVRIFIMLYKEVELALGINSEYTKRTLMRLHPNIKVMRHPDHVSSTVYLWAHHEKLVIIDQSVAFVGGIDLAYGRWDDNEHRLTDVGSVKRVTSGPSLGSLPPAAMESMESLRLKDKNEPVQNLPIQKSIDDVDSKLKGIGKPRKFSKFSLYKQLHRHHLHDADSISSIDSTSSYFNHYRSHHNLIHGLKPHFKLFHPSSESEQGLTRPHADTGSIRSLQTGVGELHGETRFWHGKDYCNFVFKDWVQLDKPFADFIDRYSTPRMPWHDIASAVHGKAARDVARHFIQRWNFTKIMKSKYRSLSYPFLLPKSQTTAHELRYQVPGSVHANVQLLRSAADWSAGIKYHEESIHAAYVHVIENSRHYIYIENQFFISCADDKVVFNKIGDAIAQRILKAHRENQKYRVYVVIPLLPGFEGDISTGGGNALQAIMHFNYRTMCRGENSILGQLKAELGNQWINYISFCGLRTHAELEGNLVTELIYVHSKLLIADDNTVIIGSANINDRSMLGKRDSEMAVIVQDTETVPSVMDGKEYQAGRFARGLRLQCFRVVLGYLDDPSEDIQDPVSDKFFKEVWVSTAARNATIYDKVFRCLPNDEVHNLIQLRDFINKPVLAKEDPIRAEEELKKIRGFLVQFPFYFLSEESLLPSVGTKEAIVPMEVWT

[21] = target: Metabotropic glutamate receptor 7 (Homo sapiens, UniProt Q14831); assay: mGlu7 positive allosteric modulators, dose response, cell-based, calcium mobilization, Galpha15 (AID 743384); type: functional
cells = settings: HEK293

Sequence of Transitional endoplasmic reticulum ATPase (Homo sapiens, UniProt P55072, C522A) (P55072 2-806 C522A limits assumed): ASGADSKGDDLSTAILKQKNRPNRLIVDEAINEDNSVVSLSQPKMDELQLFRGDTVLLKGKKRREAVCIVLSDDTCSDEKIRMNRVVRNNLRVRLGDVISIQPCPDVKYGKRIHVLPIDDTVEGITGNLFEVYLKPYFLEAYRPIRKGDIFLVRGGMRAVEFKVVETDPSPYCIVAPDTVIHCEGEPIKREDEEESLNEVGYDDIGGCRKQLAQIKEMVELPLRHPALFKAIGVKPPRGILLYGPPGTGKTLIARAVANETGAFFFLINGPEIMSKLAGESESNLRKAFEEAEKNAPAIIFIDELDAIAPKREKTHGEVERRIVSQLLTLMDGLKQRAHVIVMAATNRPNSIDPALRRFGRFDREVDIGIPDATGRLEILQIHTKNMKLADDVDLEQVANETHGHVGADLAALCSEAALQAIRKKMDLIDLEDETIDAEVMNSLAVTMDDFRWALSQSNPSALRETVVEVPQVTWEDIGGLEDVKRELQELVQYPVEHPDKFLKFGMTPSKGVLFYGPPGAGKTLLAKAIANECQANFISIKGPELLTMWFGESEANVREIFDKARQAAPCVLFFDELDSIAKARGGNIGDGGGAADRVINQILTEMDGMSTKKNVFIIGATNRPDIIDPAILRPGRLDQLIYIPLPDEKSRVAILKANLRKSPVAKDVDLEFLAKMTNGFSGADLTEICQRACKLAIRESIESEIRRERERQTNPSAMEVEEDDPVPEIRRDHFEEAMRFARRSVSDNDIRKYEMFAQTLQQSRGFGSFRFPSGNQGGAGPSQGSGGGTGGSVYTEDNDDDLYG
Sequence of Cytochrome P450 2C9 (P11712 whole entry): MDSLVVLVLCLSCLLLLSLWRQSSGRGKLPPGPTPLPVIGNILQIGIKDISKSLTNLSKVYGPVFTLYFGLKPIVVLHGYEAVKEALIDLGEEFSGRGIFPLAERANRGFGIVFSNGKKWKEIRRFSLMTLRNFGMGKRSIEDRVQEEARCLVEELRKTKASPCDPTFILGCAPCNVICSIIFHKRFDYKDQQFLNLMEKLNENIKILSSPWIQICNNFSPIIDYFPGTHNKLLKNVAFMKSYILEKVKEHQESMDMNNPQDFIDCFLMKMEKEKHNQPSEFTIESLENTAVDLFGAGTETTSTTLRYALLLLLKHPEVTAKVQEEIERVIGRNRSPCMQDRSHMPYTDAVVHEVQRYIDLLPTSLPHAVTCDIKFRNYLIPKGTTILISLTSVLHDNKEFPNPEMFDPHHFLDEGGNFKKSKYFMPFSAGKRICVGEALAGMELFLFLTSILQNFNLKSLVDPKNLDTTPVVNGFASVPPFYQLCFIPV
Sequence of SWI/SNF-related matrix-associated actin-dependent regulator of chromatin subfamily A member 2 (P51531 whole entry): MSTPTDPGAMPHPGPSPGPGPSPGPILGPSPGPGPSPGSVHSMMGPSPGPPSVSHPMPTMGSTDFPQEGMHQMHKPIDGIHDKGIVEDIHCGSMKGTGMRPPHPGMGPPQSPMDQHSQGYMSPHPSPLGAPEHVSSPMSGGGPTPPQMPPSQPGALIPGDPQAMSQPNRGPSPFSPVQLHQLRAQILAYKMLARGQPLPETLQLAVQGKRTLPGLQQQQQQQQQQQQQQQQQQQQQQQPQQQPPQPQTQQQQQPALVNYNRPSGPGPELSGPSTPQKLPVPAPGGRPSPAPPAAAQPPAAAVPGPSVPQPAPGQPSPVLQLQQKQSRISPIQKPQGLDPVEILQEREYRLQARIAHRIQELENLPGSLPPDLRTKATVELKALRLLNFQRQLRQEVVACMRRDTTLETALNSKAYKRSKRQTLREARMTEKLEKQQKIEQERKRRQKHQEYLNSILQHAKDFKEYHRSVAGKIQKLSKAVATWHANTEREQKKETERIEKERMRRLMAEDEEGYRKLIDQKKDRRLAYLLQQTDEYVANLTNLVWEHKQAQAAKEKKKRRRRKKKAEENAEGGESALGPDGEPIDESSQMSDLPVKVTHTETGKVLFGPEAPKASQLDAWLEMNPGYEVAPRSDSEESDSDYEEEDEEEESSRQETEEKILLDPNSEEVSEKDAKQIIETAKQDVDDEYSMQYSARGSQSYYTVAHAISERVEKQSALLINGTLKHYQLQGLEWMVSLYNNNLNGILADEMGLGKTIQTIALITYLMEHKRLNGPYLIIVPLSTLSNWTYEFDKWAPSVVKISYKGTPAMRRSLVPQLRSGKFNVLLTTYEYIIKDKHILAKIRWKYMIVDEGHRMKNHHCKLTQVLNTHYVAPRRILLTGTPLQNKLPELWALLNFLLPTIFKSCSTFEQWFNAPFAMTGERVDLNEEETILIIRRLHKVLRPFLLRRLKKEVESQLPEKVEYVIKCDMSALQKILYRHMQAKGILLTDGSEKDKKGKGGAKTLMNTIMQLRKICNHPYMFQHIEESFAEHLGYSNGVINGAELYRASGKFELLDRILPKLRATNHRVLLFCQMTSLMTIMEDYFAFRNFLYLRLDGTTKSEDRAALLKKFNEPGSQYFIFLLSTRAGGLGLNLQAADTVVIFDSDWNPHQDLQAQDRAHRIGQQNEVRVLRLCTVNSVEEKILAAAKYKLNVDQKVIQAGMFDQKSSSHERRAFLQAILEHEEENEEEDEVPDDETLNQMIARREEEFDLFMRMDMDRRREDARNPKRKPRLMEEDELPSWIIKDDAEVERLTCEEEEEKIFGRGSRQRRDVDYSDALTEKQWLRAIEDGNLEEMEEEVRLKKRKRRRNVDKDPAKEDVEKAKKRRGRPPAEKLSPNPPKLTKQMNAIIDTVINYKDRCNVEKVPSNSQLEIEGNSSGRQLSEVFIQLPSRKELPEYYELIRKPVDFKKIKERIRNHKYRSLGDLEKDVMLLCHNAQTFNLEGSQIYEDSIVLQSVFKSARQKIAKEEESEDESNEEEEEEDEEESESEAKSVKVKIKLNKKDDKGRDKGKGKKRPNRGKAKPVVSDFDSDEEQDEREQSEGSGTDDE
Sequence of Photoreceptor-specific nuclear receptor (Q9Y5X4 whole entry, the tested form may be a part): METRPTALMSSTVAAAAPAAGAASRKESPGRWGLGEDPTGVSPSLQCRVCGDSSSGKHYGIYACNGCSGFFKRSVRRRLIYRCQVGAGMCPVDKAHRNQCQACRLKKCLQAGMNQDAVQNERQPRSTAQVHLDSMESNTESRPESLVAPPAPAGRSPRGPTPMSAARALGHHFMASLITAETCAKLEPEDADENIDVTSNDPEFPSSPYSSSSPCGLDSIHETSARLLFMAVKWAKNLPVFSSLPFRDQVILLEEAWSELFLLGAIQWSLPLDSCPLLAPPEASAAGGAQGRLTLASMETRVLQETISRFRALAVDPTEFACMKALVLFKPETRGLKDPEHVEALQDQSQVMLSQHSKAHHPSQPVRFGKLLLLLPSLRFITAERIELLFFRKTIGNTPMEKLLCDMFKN
Sequence of Luciferin 4-monooxygenase (P08659 whole entry): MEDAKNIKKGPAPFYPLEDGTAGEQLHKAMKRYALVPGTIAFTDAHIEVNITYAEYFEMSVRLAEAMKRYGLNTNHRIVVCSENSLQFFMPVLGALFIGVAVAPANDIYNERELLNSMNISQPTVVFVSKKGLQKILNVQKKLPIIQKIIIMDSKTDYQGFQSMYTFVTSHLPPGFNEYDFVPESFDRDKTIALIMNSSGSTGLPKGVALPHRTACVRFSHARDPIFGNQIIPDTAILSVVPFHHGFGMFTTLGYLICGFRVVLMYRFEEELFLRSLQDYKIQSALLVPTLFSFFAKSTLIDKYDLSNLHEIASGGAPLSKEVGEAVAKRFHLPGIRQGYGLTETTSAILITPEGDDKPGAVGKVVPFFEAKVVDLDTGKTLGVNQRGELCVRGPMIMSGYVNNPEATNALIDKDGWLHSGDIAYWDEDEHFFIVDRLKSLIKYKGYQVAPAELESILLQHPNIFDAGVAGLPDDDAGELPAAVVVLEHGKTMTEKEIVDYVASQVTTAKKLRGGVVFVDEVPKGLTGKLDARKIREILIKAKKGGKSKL
Sequence of Glyceraldehyde-3-phosphate dehydrogenase (P04406 whole entry): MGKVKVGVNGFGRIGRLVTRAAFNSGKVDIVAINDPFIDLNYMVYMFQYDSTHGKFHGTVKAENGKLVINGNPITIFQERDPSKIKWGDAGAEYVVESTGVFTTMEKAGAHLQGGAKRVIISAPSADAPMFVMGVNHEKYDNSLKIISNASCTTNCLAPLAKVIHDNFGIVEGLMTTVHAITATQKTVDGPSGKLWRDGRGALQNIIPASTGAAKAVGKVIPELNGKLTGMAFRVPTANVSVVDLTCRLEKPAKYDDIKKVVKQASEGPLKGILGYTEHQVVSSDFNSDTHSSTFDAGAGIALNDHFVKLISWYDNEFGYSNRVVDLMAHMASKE
Sequence of Aryl hydrocarbon receptor (P35869 whole entry): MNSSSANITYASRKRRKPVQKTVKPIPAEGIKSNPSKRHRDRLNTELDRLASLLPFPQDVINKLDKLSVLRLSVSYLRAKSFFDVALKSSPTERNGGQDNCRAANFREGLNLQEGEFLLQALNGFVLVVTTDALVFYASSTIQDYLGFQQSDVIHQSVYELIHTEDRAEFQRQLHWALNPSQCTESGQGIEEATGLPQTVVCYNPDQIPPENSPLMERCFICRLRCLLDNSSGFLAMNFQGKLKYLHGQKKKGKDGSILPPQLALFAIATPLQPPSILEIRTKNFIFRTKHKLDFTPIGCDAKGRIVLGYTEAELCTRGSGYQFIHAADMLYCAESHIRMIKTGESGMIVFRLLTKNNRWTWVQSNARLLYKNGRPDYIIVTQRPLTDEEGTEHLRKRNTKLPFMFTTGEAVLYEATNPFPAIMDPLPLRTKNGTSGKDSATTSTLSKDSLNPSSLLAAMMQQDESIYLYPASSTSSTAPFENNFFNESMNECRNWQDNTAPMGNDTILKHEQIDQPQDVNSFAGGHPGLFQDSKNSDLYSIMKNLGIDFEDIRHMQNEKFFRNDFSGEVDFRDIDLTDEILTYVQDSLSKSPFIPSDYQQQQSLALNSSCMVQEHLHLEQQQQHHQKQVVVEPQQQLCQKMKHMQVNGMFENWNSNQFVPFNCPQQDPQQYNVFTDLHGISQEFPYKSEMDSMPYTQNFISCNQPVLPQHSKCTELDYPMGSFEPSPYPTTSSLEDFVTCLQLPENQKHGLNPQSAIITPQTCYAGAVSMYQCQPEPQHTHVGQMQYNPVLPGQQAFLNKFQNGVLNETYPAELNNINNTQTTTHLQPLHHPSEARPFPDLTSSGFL

Cc1cccc(N2C(=O)C(Cl)=C(N3CCN(C)CC3)C2=O)c1
IC50 [1]: > 100 µM (not active)
IC50 (Bcl-2-related protein A1 [2]): 10.8 µM (active)
IC50 (Bcl-2-related protein A1 [3]): 12.6 µM (active)

O=C(Nc1cccnc1)Nc1cc(Cl)cc(Cl)c1
EC50 [4]: 7.83 µM (active)
EC50 (Streptokinase A): > 150 µM (not active)
EC50 [5]: > 1.13 µM (active)
EC50 (Streptococcus): 85.4 µM (active)

CN1CC=C2C(C#N)=C(N)C(C#N)(C#N)[C@H](c3cccc(Cl)c3)C2C1 (some centres not stated)
EC50 [6]: 12.5 µM (active)
IC50 (Bcl-2-related protein A1 [7]): > 100 µM (not active)
EC50 [8]: 11.6 µM (active)
IC50 (Bcl-2-related protein A1 [2]): > 100 µM (not active)

CCOc1cc(C)c(Cl)cc1S(=O)(=O)NCc1ccco1
CC50 [9]: 27.7 µM (active)

Cc1c(NC(=O)CCN2C(=O)c3ccccc3C2=O)c(=O)n(-c2ccccc2)n1C
EC50 [10]: > 112 µM (not active)
EC50 [11]: > 112 µM (not active)
IC50 (Ephrin type-A receptor 4): > 100 µM (not active)

CCOc1ccc(-c2csc(Nc3ccc(C#N)cc3)n2)cc1
IC50 [12]: > 50 µM (not active)
IC50 [13]: > 50 µM (not active)

Cc1cnc(NC(=O)CCCc2nc3ccccc3s2)s1
IC50 [14]: 0.563 µM (active)
EC50 [15]: > 91.2 µM (inactive)
EC50 [16]: > 91.2 µM (inactive)
IC50 [17]: > 67.5 µM (inactive)
EC50 (Transthyretin): > 167 µM (inactive)
AC50 (Cytochrome P450 2C9): 5.62 µM (inconclusive)

O=c1c2cc(I)ccc2nc2n1CCC2
CC50 (Vero): > 100 µM (active)

CCc1nnc(NC(=O)CSc2nc(-c3ccccc3)cc(-c3ccc(OC)cc3)c2C#N)s1
EC50 [18]: 1.31 µM (active)

CN1c2ccc(Br)cc2Sc2cc(C(=O)c3ccccc3)ccc21
IC50 (NADPH oxidase 1): > 20 µM (not active)

Cc1ccc(C2=NN=C(c3ccncc3)c3ccc4ccccc4c3N2)cc1
IC50 [19]: 3.52 µM (active)

COC(=O)C1=C(C)N(Cc2cccc(C(F)(F)F)c2)C(NCc2ccc(OC)cc2)=NC1c1ccc(F)cc1 (configuration not stated)
IC50 [20]: > 96.6 µM (inactive)

O=C(NCCN1CCC2(CC1)C(=O)NCN2Cc1ccccc1Cl)c1ccc2ccccc2c1
IC50 (Phospholipase D2): 0.11 µM (active)
IC50 (Phospholipase D1): 2.3 µM (active)

COC(=O)c1ccc(-n2c(C)cc(C(=O)CSCc3ccc(OC)cc3)c2C)cc1
EC50 [21]: 1 µM (active)

CC(C)Oc1cccc(OCCn2cnc3ccccc32)c1
AC50 (cells): > 52 µM (inactive)
